This assay has as its system HeLa cells. The assay can be described thus: CPP uptake experiment: cellular fluorescence of FAM-labeled CPPs. The assay is classed as cell-based, human. The note with it: for Fluorescence (RFU): HeLa cells after incubation with 10 µM FAM-labeled CPP, 90 min, 37 °C, mean of two experiments (Table 1). The procedure: The human cervix adenocarcinoma cell line HeLa was obtained from I.A.Z. (Munich, Germany). As cell growth medium DMEM/Ham’s F-12 (1:1) supplemented with 2 mM L-glutamine, 10% fetal bovine serum, and 1% penicillin/streptomycin (all Capricorn Scientific, Ebsdorfergrund, Germany, formerly PAA Laboratories) was used, and cells were cultured at 37 °C and 5% CO2. They were passaged before reaching confluence; for the experiments, cells at passages p8–p20 were used. For testing uptake efficiency and cytotoxicity of CPPs, cells were seeded in 96-well µ-plates (ibidi, Munich, Germany) at a concentration of 6 × 10^4 cells per well and incubated for 48 h to reach confluence before performing the experiments.
All solutions used were warmed to 37 °C, with CPP incubation performed at 37 °C and 5% CO2. CPP working solutions were prepared in 96-well polypropylene plates (Corning, Amsterdam, Netherlands) directly before incubation by diluting the 50 µM FAM-labeled CPP stock solutions to 10 µM with cell growth medium. The confluent HeLa cells in the 96-well µ-plates were exposed to 100 µl of a 10 µM CPP working solution per well for 90 min. Cell growth medium served as negative control. After incubation, the cells were washed twice with 300 µl of CM-PBS (PAA Laboratories), then 100 µl CM-PBS was added before determining fluorescence intensities in a plate reader (SpectraMax M5, Molecular Devices, Sunnyvale, CA) at an excitation wavelength of 495 nm and an emission wavelength of 530 nm. Transmission images of the treated cell layers were taken using a MORE microscope (TILL Photonics, Munich, Germany) equipped with a 10×/0.45 objective (Zeiss, Jena, Germany), an FITC filterset (ET480_40x/ET535_50 m/T510LPXRXT, Chroma, Rockingham, NC) and LED and oligochrome light source (FEI). Images were acquired using a Stingray F-145B CCD camera (Allied Vision Tech., Stadtroda, Germany) via live acquisition software (v2.2.2, FEI).

Consider LIRLWSHLIHIWFQNRRLKWKKK [compound 466], for which the “Fluorescence (RFU)” value stood at 425.60 RFU. For the substance GLWRALWRGLRSLWKLKRKV [compound 426], the “Fluorescence (RFU)” value was 347.66 RFU.

“KLALKLALKALKAALK [compound 296, designed model peptide, FAM-labeled CPP]”: the “Fluorescence (RFU)” value is listed as 478.40 RFU. Take “VKRKKKPALWKTLLKKVLKA [compound 416, CPP derived from the antimicrobial peptide dermaseptin S4 attached to a nuclear localization signal, FAM-labeled]”: the “Fluorescence (RFU)” value amounted to 925.42 RFU. For KLALKLALKALKAALKLA [compound 405], the “Fluorescence (RFU)” value was determined as 440.41 RFU. As to GLWRALWRGLRSLWKKKRKV [compound 427], the “Fluorescence (RFU)” value was determined as 375.17 RFU. Regarding CWKKKKKKKKKKKKKKKKKK [compound 429], the “Fluorescence (RFU)” value came out at 417.94 RFU.

Turning to “KTVLLRKLLKLLVRKI [compound 342, designed model peptide, FAM-labeled CPP]”, the “Fluorescence (RFU)” value is on record as 855.56 RFU. As for PKKKRKVALWKTLLKKVLKA [compound 415], the “Fluorescence (RFU)” value is 390.81 RFU. The same measure, in the same setting: the same measure for WLRRIKAWLRRIKALNRQLGVAA [compound 471]: 1011.42 RFU; for KLALKLALKAWKAALKLA [compound 372]: 309.34 RFU. For “5(6)-carboxyfluorescein [FAM, reference compound]”, under “FAM not coupled to a CPP, mean value and standard error of two measurements”, the “Uptake of FAM without CPP into the HeLa layer” value is 14.3 ± 8.1 RFU. As to KALAKALAKLWKALAKAA [compound 373], the “Fluorescence (RFU)” value is reported as 345.58 RFU. As for LLKKRKVVRLIKFLLK [compound 343], the “Fluorescence (RFU)” value came to 435.30 RFU.

On to LNSAGYLLGKINLKALAALAKKIL [compound 473], for which the “Fluorescence (RFU)” value was 422.13 RFU. As to GLWRALWRALRSLWKLKRKV [compound 425], the “Fluorescence (RFU)” value is 384.64 RFU. With GLFKALLKLLKSLWKLLLKA [compound 431], the “Fluorescence (RFU)” value turned out to be 326.66 RFU. As for YTAIAWVKAFIRKLRK [compound 351], the “Fluorescence (RFU)” value is given as 401.31 RFU. “KKKKKKKKKKKKKKKKKKK [compound 412, designed model peptide, FAM-labeled CPP]”: the “Fluorescence (RFU)” value was 632.01 RFU. Consider KLAAALLKKWKKLAAALL [compound 375], for which the “Fluorescence (RFU)” value is reported as 335.89 RFU. Turning to RQARRNRRRALWKTLLKKVLKA [compound 446], the “Fluorescence (RFU)” value is reported as 450.97 RFU.

The values above are taken from article PMC6058608, “Cell penetrating peptides: a comparative transport analysis for 474 sequence motifs” (Drug Delivery, 2018).
